Assay results from patent US8691813B2, “Indole and benzoxazine derivatives as modulators of metabotropic glutamate receptors” (Janssen Pharmaceuticals, Inc., priority 2008, dated 2014).

What was measured:
human mGluR2 = biological target: T1, human mGluR2 (Homo sapiens, UniProt Q14416); experiment: [35S]GTPγS binding assay (PAM assay) using membranes from CHO cells transfected with the human mGluR2 receptor; type: biochemical; conditions: in presence of glutamate at predetermined EC25 concentration, membranes containing human mGluR2, averages of duplicate values of 11-concentration response curves; for EC50: read-out: GTPγS -hR2 PAM pEC50 (converted)
T1 construct: expressed in transfected cells; host or cells: CHO cells (membrane preparation)
Protocol: The [^35S]GTPγS binding assay is a functional membrane-based assay used to study G-protein coupled receptor (GPCR) function whereby incorporation of a non-hydrolysable form of GTP, [^35S]GTPγS (guanosine 5′-triphosphate, labelled with […] ^35S), is measured.
CHO-cells were cultured to pre-confluence and stimulated with 5 mM butyrate for 24 hs, prior to washing in PBS (phosphate-buffered saline), and then collection by scraping in homogenisation buffer (50 mM Tris-HCl buffer, pH 7.4, 4° C.). Cell lysates were homogenized briefly (15 s) using an ultra-turrax homogenizer. The homogenate was centrifuged at 23 500×g for 10 min. and the supernatant discarded. The pellet was resuspended in 5 mM Tris-HCl, pH 7.4 and centrifuged again (30 000×g, 20 min., 4° C.). The final pellet was resuspended in 50 mM HEPES, pH 7.4 and stored at −80° C. in appropriate aliquots before use. Protein concentration was determined by the Bradford method (Bio-Rad, USA) with bovine serum albumin as standard.
Measurement of mGluR2 positive allosteric modulatory activity of test compounds in membranes containing human mGluR2 was performed using frozen membranes that were thawed and briefly homogenised prior to pre-incubation in 96-well microplates (15 μg/assay well, 30 minutes, 30° C.) in assay buffer (50 mM HEPES pH 7.4, 100 mM NaCl, 3 mM MgCl2, 50 μM GDP, 10 μg/ml saponin,) with increasing concentrations of positive allosteric modulator (from 0.3 nM to 50 μM) and either a minimal pre-determined concentration of glutamate (PAM assay), or no added glutamate. […] After addition of [^35S]GTPγS (0.1 nM, f.c.) to achieve a total reaction volume of 200 μl, microplates were shaken briefly and further incubated to allow [^35S]GTPγS incorporation on activation (30 minutes, 30° C.). The reaction was stopped by rapid vacuum filtration over glass-fibre filter plates (Unifilter 96-well GF/B filter plates, Perkin-Elmer, Downers Grove, USA) microplate using a 96-well plate cell harvester (Filtermate, Perkin-Elmer, USA), and then by washing three times with 300 μl of ice-cold wash buffer (Na2PO4.2H2O 10 mM, NaH2PO4.H2O 10 mM, pH=7.4). Filters were then air-dried, and 40 μl of liquid scintillation cocktail (Microscint-O) was added to each well, and membrane-bound [^35S]GTPγS was measured in a 96-well scintillation plate reader (Top-Count, Perkin-Elmer, USA). Non-specific [^35S]GTPγS binding is determined in the presence of cold 10 μM GTP. Each curve was performed at least once using duplicate sample per data point and at 11 concentrations.
The concentration-response curves of representative compounds of the present invention in the presence of added EC25 of mGluR2 agonist glutamate to determine positive allosteric modulation (PAM), were generated using the Prism GraphPad software (Graph Pad Inc, San Diego, USA).

T1 sequence (Q14416 19-872): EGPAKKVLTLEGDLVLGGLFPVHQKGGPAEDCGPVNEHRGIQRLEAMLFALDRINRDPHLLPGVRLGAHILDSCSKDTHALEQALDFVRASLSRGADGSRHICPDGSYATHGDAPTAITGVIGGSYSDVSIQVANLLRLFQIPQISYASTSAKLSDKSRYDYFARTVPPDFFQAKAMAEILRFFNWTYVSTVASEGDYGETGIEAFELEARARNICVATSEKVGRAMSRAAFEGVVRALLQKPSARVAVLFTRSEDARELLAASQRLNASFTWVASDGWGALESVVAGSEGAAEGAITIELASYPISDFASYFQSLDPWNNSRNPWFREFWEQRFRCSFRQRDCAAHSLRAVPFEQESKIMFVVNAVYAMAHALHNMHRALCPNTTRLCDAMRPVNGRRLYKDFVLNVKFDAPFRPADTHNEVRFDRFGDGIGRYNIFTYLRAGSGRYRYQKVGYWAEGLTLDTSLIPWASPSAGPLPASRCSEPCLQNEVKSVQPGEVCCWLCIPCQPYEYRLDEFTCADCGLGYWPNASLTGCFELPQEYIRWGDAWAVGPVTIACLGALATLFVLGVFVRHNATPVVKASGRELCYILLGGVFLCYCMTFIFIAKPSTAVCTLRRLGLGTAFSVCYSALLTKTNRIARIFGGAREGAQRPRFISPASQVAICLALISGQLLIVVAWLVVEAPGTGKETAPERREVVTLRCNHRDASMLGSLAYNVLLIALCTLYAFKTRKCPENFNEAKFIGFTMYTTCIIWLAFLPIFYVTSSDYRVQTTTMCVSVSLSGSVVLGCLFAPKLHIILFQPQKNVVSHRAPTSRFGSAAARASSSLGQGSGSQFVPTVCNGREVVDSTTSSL

Row | SMILES | EC50 (human mGluR2) [nM] | melting point [°C] | GTPγS -hR2 PAM pEC50 (human mGluR2)
1 | OC1CCC(N2CCOc3cc(-c4ccn5c(CC(F)(F)F)cnc5c4Cl)ccc32)CC1 (mixture of isomers) [Compound 5, 4-[7-[8-Chloro-3-(2,2,2-trifluoro-ethyl)-imidazo[1,2-a]pyridin-7-yl]-2,3-dihydro-4H-1,4-benzoxazin-4-yl]-cyclohexanol] | 112 | – | –
2 | N#Cc1c(-c2cc(Cl)c3c(ccn3C3CCOCC3)c2)ccn2c(CC(F)(F)F)cnc12 [Compound 1, 7-[7-Chloro-1-(tetrahydro-pyran-4-yl)-1H-indol-5-yl]-3-(2,2,2-trifluoroethyl) imidazo[1,2-a]pyridine-8-carbonitrile] | 380 | – | –
3 | FC(F)(F)Cc1cnc2c(Cl)c(-c3cc(Cl)c4[nH]ccc4c3)ccn12 [Compound 2, 8-Chloro-7-(7-chloro-M-indol-5-yl)-3-(2,2,2-trifluoroethyl)-imidazo[1,2-a]-pyridine] | – | 182.8 | 7.07
4 | O[C@H]1CC[C@H](n2ccc3cc(-c4ccn5c(CC(F)(F)F)cnc5c4Cl)ccc32)CC1 [Compound 3] | 166 | 131.6 | –
5 | C[C@]1(O)CC[C@H](n2ccc3cc(-c4ccn5c(CC(F)(F)F)cnc5c4Cl)ccc32)CC1 [Compound 4, trans-4-[5-[8-Chloro-3-(2,2,2-trifluoroethyl)-imidazo[1,2-a]pyridin-7-yl]-1H-indol-1-yl-]-1-methyl-cyclohexanol] | 129 | 262.2 | –
6 | N#Cc1c(-c2ccc3c(ccn3C3CCOCC3)c2)ccn2c(CC(F)(F)F)cnc12 [Compound 6] | – | 232.9 | –
7 | Cn1ccc2cc(-c3ccn4c(CC(F)(F)F)cnc4c3C#N)ccc21 [Compound 7] | – | – | 6.64
8 | CC(C)(O)Cn1ccc2cc(-c3ccn4c(CC(F)(F)F)cnc4c3C#N)ccc21 [Compound 9] | 1070 | – | –
9 | Cn1ccc2cc(-c3ccn4c(CC(F)(F)F)cnc4c3C#N)cc(Cl)c21 [Compound 10] | – | 172 | –
10 | N#Cc1c(-c2cc(Cl)c3c(ccn3CC3CC3)c2)ccn2c(CC(F)(F)F)cnc12 [Compound 11] | – | 175.3 | 6.96
11 | N#Cc1c(-c2ccc3c(c2)OCCN3CC2CC2)ccn2c(CC(F)(F)F)cnc12 [Compound 12] | 117 | – | –
12 | N#Cc1c(-c2ccc3c(ccn3CC3CC3)c2)ccn2c(CC(F)(F)F)cnc12 [Compound 13] | – | 117.9 | –
13 | CC(C)OCCn1ccc2cc(-c3ccn4c(CC(F)(F)F)cnc4c3C#N)ccc21 [Compound 14] | 813 | – | –
14 | CN1CCOc2cc(-c3ccn4c(CC(F)(F)F)cnc4c3C#N)ccc21 [Compound 15] | 575 | – | –
15 | N#Cc1c(-c2ccc3c(ccn3[C@H]3CC[C@H](O)CC3)c2)ccn2c(CC(F)(F)F)cnc12 [Compound 16] | 245 | – | –
16 | FC(F)(F)Cc1cnc2c(Cl)c(-c3cc(Cl)c4c(ccn4CC4CC4)c3)ccn12 [Compound 18] | – | 151.3 | 6.60
17 | N#Cc1c(-c2ccc3c(c2)OCCN3[C@H]2CC[C@H](O)CC2)ccn2c(CC(F)(F)F)cnc12 [Compound 19] | 191 | – | –
18 | C[C@]1(O)CC[C@H](n2ccc3cc(-c4ccn5c(CC(F)(F)F)cnc5c4C#N)ccc32)CC1 [Compound 21] | 309 | 138.6 | –
19 | C[C@]1(O)CC[C@@H](n2ccc3cc(-c4ccn5c(CC(F)(F)F)cnc5c4C#N)ccc32)CC1 [Compound 22] | 501 | 171.1 | –
20 | FC(F)(F)Cc1cnc2c(Cl)c(-c3ccc4c(ccn4-c4ccccn4)c3)ccn12 [Compound 24] | 468 | – | –
21 | FC(F)(F)Cc1cnc2c(Cl)c(-c3ccc4c(ccn4-c4ncccn4)c3)ccn12 [Compound 25, 8-Chloro-7-(1-pyrimidin-2-yl-1H-indol-5-yl)-3-(2,2,2-trifluoro-ethyl)-imidazo[1,2-a]pyridine] | 331 | – | –
22 | N#Cc1c(-c2ccc3c(ccn3Cc3ccncc3)c2)ccn2c(CC(F)(F)F)cnc12 [Compound 27] | 117 | – | –
23 | N#Cc1c(-c2ccc3c(ccn3-c3ccccc3)c2)ccn2c(CC(F)(F)F)cnc12 [Compound 28] | 219 | – | –
24 | N#Cc1c(-c2ccc3c(ccn3-c3ccc(F)cc3)c2)ccn2c(CC(F)(F)F)cnc12 [Compound 29] | 200 | 197.3 | –
25 | Cc1cc(Cn2ccc3cc(-c4ccn5c(CC(F)(F)F)cnc5c4C#N)ccc32)ccn1 [Compound 30] | 33.9 | – | –
